Literature values as cited in patent publication US20090074668A1, “Vldlr-/- mouse models and related methods” (priority 2007, published 2009).

Tested on: VEGF
Conditions: intraocular administration; in vitro and in vivo

In the case of CC1(C)O[C@@H]2C[C@H]3[C@@H]4CCC5=CC(=O)C=C[C@]5(C)[C@@]4(F)[C@@H](O)C[C@]3(C)[C@]2(C(=O)CO)O1 [Kenalog], the “effect on VEGF levels” value is given as “reduce VEGF levels”.
